± gives the expanded uncertainty stated by the source.
Conditions: Liquid, Closed cell (Static) method

vapor or sublimation pressure (318.4 K) | Structure (SMILES) | also measured
31.37 ± 0.42 kPa | CCOC(C)=O [ethyl acetate] | 
538.15 ± 2.3 kPa | C=C(C)C [2-methylpropene] | 
 | C=CCC [1-butene] | vapor or sublimation pressure (318.42 K): 525.55 ± 2.3 kPa
391.45 ± 1.8 kPa | C/C=C\C [(Z)-2-butene] | 
436.55 ± 1.9 kPa | CCCC [butane] | 
 | CC(C)C [2-methylpropane] | vapor or sublimation pressure (318.39 K): 607.54 ± 2.6 kPa

— the NIST ThermoML archive (doi:10.1016/j.fluid.2004.10.023)
